{"source": "patent US10934283B2", "about": "“COMT inhibiting methods and compositions” (LIEBER INSTITUTE FOR BRAIN DEVELOPMENT, priority 2015, dated 2021)", "data": [{"target": "T1, catechol-O-methyltransferase (COMT) (Homo sapiens, UniProt P21964)", "T1 construct": "M51A variant) was expressed in HEK 293F cells", "T1 sequence (P21964 52-271 limits assumed)": "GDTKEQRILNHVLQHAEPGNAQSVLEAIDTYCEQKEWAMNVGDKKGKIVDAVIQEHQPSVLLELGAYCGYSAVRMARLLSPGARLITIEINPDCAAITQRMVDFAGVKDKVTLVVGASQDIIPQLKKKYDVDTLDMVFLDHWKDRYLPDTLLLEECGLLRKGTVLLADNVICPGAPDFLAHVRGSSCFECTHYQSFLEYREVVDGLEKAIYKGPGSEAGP", "test": "COMT inhibition assay (HTRF, production of SAH from SAM)", "assay_type": "biochemical", "conditions": "table does not say MB-COMT or S-COMT", "experimental": "The ability of compounds to inhibit the activity of catechol-O-methyltransferase (COMT) was determined by a homogenous time-resolved fluorescent (HTRF) assay (Lina et al, 2012; kit from CisBio, Codolet, France). This assay measures the production of S-adenosyl homocysteine (SAH) from the methyl donor S-adenosyl methionine. Recombinant human membrane bound COMT (MB-COMT; M51A variant) was expressed in HEK 293F cells using 293Fectin (Life Technologies, Gent, Belgium) and membranes prepared. The membranes were re-suspended in buffer (20 mM Tris/HCl pH 7; 10 mM glycerol; 2 mM MgCl2; 10 mM NaCl), aliquoted and stored at −80° C. Recombinant human soluble COMT(S-COMT), Val158 variant and a hexa-His tag on the N-terminus, was purified using Ni-NTA chromatography, the His tag removed and stored in buffer as above.\nFor the human MB-COMT assay, membranes (62 ng/well) were incubated with SAM (20 μM final, CisBio) and dopamine (1.5 μM final; Sigma H8502, Diegem, Belgium) in the presence or absence of varying concentrations (typically 10 concentrations ranging from 10 ? M to 0.1 nM) of compound for 40 min at 37° C. in 384-well microtiter plates (10 ? l per well final volume). The reaction was terminated by the addition of acylation buffer and the amount of SAH produced determined according to manufacturer's instructions. Specific inhibition as that inhibited by a high concentration of tolcapone and all experiments were validated using a control curve to tolcapone.\nThe human S-COMT assay was performed as above except that 0.15 ng enzyme/well was incubated with SAM ([…]) and dopamine (100 μM final) for 15 min at 37° C. and SAH production determined.\nHTRF readings were performed using a Perkin Elmer Envision and results expressed as concentration of SAH produced using a standard curve. Results were analyzed using non-linear regression to the 4-parameter logistic equation and pIC50 (−log 10 concentration of drug which inhibits enzyme activity/SAH production by 50%) determined.", "values": [{"smiles": "CCc1ccc(CN2CCn3cc(O)c(=O)cc3C2)cc1", "note": "[Example 13, 2-(4-ethylbenzyl)-7-hydroxy-1,2,3,4-tetrahydro-8H-pyrido[1,2-a]pyrazin-8-one]", "Activity range (pIC50)": "+++ (three plus signs (+++) is associated with a pIC50 of above about 7)"}, {"smiles": "O=c1cc2n(cc1O)CCN(Cc1cccc3cccnc13)C2", "note": "[Example 14, 7-hydroxy-2-(quinolin-8-ylmethyl)-1,2,3,4-tetrahydro-8H-pyrido[1,2-a]pyrazin-8-one]", "Activity range (pIC50)": "+++ (three plus signs (+++) is associated with a pIC50 of above about 7)"}, {"smiles": "CC(c1ccccc1)N1CCn2cc(O)c(=O)cc2C1", "note": "(centres unmarked) [Example 15, 7-hydroxy-2-(1-phenylethyl)-1,2,3,4-tetrahydro-8H-pyrido[1,2-a]pyrazin-8-one]", "Activity range (pIC50)": "++ (two plus signs (++) is associated with a pIC50 of from about 6 to 7)"}, {"smiles": "CCc1ccc(C(C)N2CCn3cc(O)c(=O)cc3C2)cc1", "note": "(centres unmarked) [Example 16, 2-[1-(4-ethylphenyl)ethyl]-7-hydroxy-1,2,3,4-tetrahydro-8H-pyrido[1,2-a]pyrazin-8-one]", "Activity range (pIC50)": "+++ (three plus signs (+++) is associated with a pIC50 of above about 7)"}, {"smiles": "N#Cc1ccccc1CN1CCn2cc(O)c(=O)cc2C1", "note": "[Example 17, 2-[(7-hydroxy-8-oxo-1,3,4,8-tetrahydro-2H-pyrido[1,2-a]pyrazin-2-yl)methyl]benzonitrile]", "Activity range (pIC50)": "++ (two plus signs (++) is associated with a pIC50 of from about 6 to 7)"}, {"smiles": "CCc1ccc(CN2CCn3cc(O)c(=O)cc3C2)cc1[N+](=O)[O-]", "note": "[Example 18, 2-(4-ethyl-3-nitrobenzyl)-7-hydroxy-1,2,3,4-tetrahydro-8H-pyrido[1,2-a]pyrazin-8-one]", "Activity range (pIC50)": "+++ (three plus signs (+++) is associated with a pIC50 of above about 7)"}, {"smiles": "O=c1cc2n(cc1O)CCN(CC(c1ccccc1)c1ccccc1)C2", "note": "[Example 19, 2-(2,2-diphenylethyl)-7-hydroxy-1,2,3,4-tetrahydro-8H-pyrido[1,2-a]pyrazin-8-one]", "Activity range (pIC50)": "++ (two plus signs (++) is associated with a pIC50 of from about 6 to 7)"}, {"smiles": "CCC(CC)CN1CCn2cc(O)c(=O)cc2C1", "note": "[Example 20, 2-(2-ethylbutyl)-7-hydroxy-1,2,3,4-tetrahydro-8H-pyrido[1,2-a]pyrazin-8-one]", "Activity range (pIC50)": "++ (two plus signs (++) is associated with a pIC50 of from about 6 to 7)"}, {"smiles": "O=c1cc2n(cc1O)CCN(Cc1cc(Cl)cc(Cl)c1)C2", "note": "[Example 21, 2-(3,5-dichlorobenzyl)-7-hydroxy-1,2,3,4-tetrahydro-8H-pyrido[1,2-a]pyrazin-8-one]", "Activity range (pIC50)": "+++ (three plus signs (+++) is associated with a pIC50 of above about 7)"}, {"smiles": "O=c1cc2n(cc1O)CCN(CC1CCCCC1)C2", "note": "[Example 22, 2-(cyclohexylmethyl)-7-hydroxy-1,2,3,4-tetrahydro-8H-pyrido[1,2-a]pyrazin-8-one]", "Activity range (pIC50)": "++ (two plus signs (++) is associated with a pIC50 of from about 6 to 7)"}, {"smiles": "O=c1cc2n(cc1O)CCN(Cc1ccc(C3CC3)cc1)C2", "note": "[Example 23, 2-(4-cyclopropylbenzyl)-7-hydroxy-1,2,3,4-tetrahydro-8H-pyrido[1,2-a]pyrazin-8-one]", "Activity range (pIC50)": "+++ (three plus signs (+++) is associated with a pIC50 of above about 7)"}, {"smiles": "CC1(C)CCCC2=C1CC(CN1CCn3cc(O)c(=O)cc3C1)CC2", "note": "(centres unmarked) [Example 24, 2-[(8,8-dimethyl-1,2,3,4,5,6,7,8-octahydronaphthalen-2-yl)methyl]-7-hydroxy-1,2,3,4-tetrahydro-8H-pyrido[1,2-a]pyrazin-8-one]", "Activity range (pIC50)": "+++ (three plus signs (+++) is associated with a pIC50 of above about 7)"}, {"smiles": "O=c1cc2n(cc1O)CCN(Cc1ccc(Cl)c(Cl)c1)C2", "note": "[Example 25, 2-(3,4-dichlorobenzyl)-7-hydroxy-1,2,3,4-tetrahydro-8H-pyrido[1,2-a]pyrazin-8-one]", "Activity range (pIC50)": "+++ (three plus signs (+++) is associated with a pIC50 of above about 7)"}, {"smiles": "O=c1cc2n(cc1O)CCN(CC1CCCCCCC1)C2", "note": "[Example 26, 2-(cyclooctylmethyl)-7-hydroxy-1,2,3,4-tetrahydro-8H-pyrido[1,2-a]pyrazin-8-one]", "Activity range (pIC50)": "++ (two plus signs (++) is associated with a pIC50 of from about 6 to 7)"}]}]}
